Results: US20110151455A1, “Fish-ribosyn for antibiotic susceptibility testing” (University of South Florida, priority 2006, published 2011)
≈ marks a conversion by molar mass, not a printed value. Entries after “also recorded” stand apart in the source; their conditions may differ.

Tests used:
[1] = system: Acinetobacter lwoffii (ATCC 15309); test: Optical density of antibiotic treated batch cultures; format: cell-based; conditions: experimental batch culture compared to control
Procedure: Acinetobacter lwoffii (ATCC 15309) was cultured on nutrient agar plates inoculated from a frozen glycerol/bead stock. After incubation for 24 hours at 32° C., a single colony was removed from the plate with a sterile loop and streaked on a second nutrient agar plate. The sterile loop was then submerged in a test tube containing 10 mL of […] which was incubated for 12 hours and 1 mL of grown culture was added to 1 mL of 4% paraformaldehyde (PFA) and incubated for 1 hour. The sample was then centrifuged at 10,000 G for 5 minutes, the supernatant decanted, and the cell pellet resuspended in ethanol PBS. Fluorescence in situ hybridization (FISH) with a genus specific probe was performed on this sample to verify culture purity before proceeding with the experiment. After culture purity was verified, the plated culture was incubated for 24 hours and a single colony was picked with a sterile loop and transferred to a 10 mL test tube of nutrient broth and incubated for 14 hours. The primary culture for this experiment was inoculated by transferring 1 mL from the test tube to a 100 mL nutrient broth flask. The optical density (OD at wavelength of 600 nm) of the culture was monitored over time until OD=0.449. […] These samples were then centrifuged at 10,000 G for 5 minutes, the supernatant decanted and cell pellets resuspended in ethanol PBS and stored at −20° C. until evaluated by FISH.

[2] = system: Acinetobacter lwoffii (ATCC 15309); test: FISH-RiboSyn of antibiotic treated batch cultures (dF/dt); format: cell-based; design: ratio of dF/dt compared to the control: concentration or dose not given beside the values; conditions: for effect on ribosome synthesis: in words
Procedure: Acinetobacter lwoffii (ATCC 15309) was cultured on nutrient agar plates inoculated from a frozen glycerol/bead stock. After incubation for 24 hours at 32° C., a single colony was removed from the plate with a sterile loop and streaked on a second nutrient agar plate. The sterile loop was then submerged in a test tube containing 10 mL of […] which was incubated for 12 hours and 1 mL of grown culture was added to 1 mL of 4% paraformaldehyde (PFA) and incubated for 1 hour. The sample was then centrifuged at 10,000 G for 5 minutes, the supernatant decanted, and the cell pellet resuspended in ethanol PBS. Fluorescence in situ hybridization (FISH) with a genus specific probe was performed on this sample to verify culture purity before proceeding with the experiment. After culture purity was verified, the plated culture was incubated for 24 hours and a single colony was picked with a sterile loop and transferred to a 10 mL test tube of nutrient broth and incubated for 14 hours. The primary culture for this experiment was inoculated by transferring 1 mL from the test tube to a 100 mL nutrient broth flask. The optical density (OD at wavelength of 600 nm) of the culture was monitored over time until OD=0.449. At this time 10 mL of culture was transferred to four separate flasks containing 90 mL of nutrient broth and an appropriate amount of antibiotic. […] (Wisplinghoff et al. (2000)). Flask 4 was untreated as a control culture. At the same time, 9 mL of the primary culture was added to a 50 mL conical containing 1 mL of 1 mg/mL chloramphenicol for a final concentration of 100 μg/mL. Samples of 1 mL were taken from the chloramphenicol treated cell culture at 0, 5, 10, 15, and 20 minutes and incubated in 1 mL of 4% PFA for at least one hour. These samples were then centrifuged at 10,000 G for 5 minutes, the supernatant decanted and cell pellets resuspended in ethanol PBS and stored at −20° C. until evaluated by FISH.
A dilution series of a growing culture of A. lwoffii was previously used to determine the relationship between OD (at 600 nm) and CFU/mL by plating diluted samples on nutrient agar plates at various values of OD and performing plate counts.
Treated flasks were allowed to incubate for 30 minutes and which time 9 mL of the primary culture was added to a 50 mL conical containing 1 mL of 1 mg/mL chloramphenicol for a final concentration of 100 μg/mL. Samples of 1 mL were taken from the chloramphenicol treated cell culture at 0, 5, 10, 15, and 20 minutes and incubated in 1 mL of 4% PFA for at least one hour. These samples were then centrifuged at 10,000 G for 5 minutes, the supernatant decanted and cell pellets resuspended in ethanol PBS and stored at −20° C. until evaluated by FISH. This was repeated for each flask at 90, 150, and 210 minutes of incubation with the antibiotic.
All images were analyzed using the Image-Pro Plus (v6.2.0.424) software package. Only single cells or diplococci were included in analysis. Images were thresholded using the “Automatic Bright Objects” option in the measurement console. Occasionally this algorithm excluded dim objects if bright objects were present. In these cases the manual thresholding was used to find the optimal thresholding range. […] The highest size threshold used for these cells was 5,000 pixels^2.

[3] = system: Acinetobacter baumannii^T; test: Minimum inhibitory concentration (MIC) determination; format: cell-based; conditions: ATCC19606, A. baumannii^T, ATCC 19606
[4] = system: Acinetobacter baumannii CBD1311; test: as above; format: cell-based; conditions: A. baumannii CBD1311
[5] = system: A. baumannii CBD1311; test: FISH-RiboSyn antibiotic susceptibility testing (rate of ribosome synthesis, pre-16S rRNA); format: cell-based, Acinetobacter baumannii; conditions: 30 minutes of antibiotic exposure; for dF/dtcm (rate of ribosome synthesis): doxycycline 8 μg/mL or levofloxacin 2 μg/mL
Procedure: (§1) Sample collection. When it was observed that a culture was in mid-log growth phase (OD of approximately 0.4) 50 mL of the culture was transferred to a sterile flask and subjected to chloramphenicol at a final concentration of 200 mg/L. Samples (1 mL) were collected from the sub-culture every five minutes (including a sample at time zero) for a total of 20 minutes. Each sample was centrifuged at 10,000 G for 2 minutes, the supernatant was decanted, and the resulting cell pellet was resuspended in 1 mL of 4% PFA for 12-24 hours. The samples were centrifuged and supernatant decanted, as previously described, and resuspended in 2 mL of ethanol PBS (EtOH-PBS). The samples were stored at −20° C. until further analysis.
(§2) To test the effects of the antibiotic doxycycline, doxycycline (Fisher Scientific) stock solution (1 mg/mL) was added to 100-mL of fresh, sterile nutrient broth for a final concentration of 8 μg/mL. A sample from an actively growing culture (10 mL) was added to the doxycycline/nutrient broth for a final volume of 110 mL. The aforementioned transfers were performed for both the resistant strain A. baumannii CBD1311 (OD=0.378) and a susceptible strain A. baumannii^T (OD=0.324). […] Transfers were performed for A. baumannii CBD1311 (OD=0.338) and A. baumannii^T (OD=0.365) and the dilutions were sufficient to ensure that the culture was below a McFarland standard of 0.5. Additionally, controls were implemented for each transfer where an additional 10 mL of the appropriate culture was combined with 100 mL of fresh sterile nutrient broth without an antibiotic. All cultures were incubated at 32° C. and shaken continuously (200 rpm).
(§3) A fluorescently-labeled oligonucleotide hybridization probe, Acin1543, targeting the pre-16S rRNA for members of the genus Acinetobacter was synthesized (5′-[…]-3′) (SEQ ID NO:1) and conjugated with the cyanine dye, Cy3, before purification with oligonucleotide probe purification cartridges (Oerther et al. (2000b)). Fluorescently labeled probes were diluted to 50 ng/μL with RNase-free water and stored at −20° C. in the dark. Fixed samples were applied to a sample well on a 10 well Heavy Teflon Coated microscope slide (Cel-Line Associates, New Field, N.J.) and air-dried. After dehydration with an increasing ethanol series (50, 80, 95% [vol/vol] ethanol, 1 min each), each sample well was covered with a mixture of 18 μL of hybridization buffer (20% [vol/vol] formamide, 0.9 M NaC1, 100 mM Tris HCl [pH 7.0], 0.1% SDS) (DelosReyes et al. (1997)) and 2 μL of the stock fluorescently labeled oligonucleotide probe. The hybridizations were conducted in a moisture chamber containing excess hybridization buffer (to prevent dehydration of buffer on sample wells) for 1.5 h, in the dark, at 46° C. The slides were washed for 30 min at 48° C. with 50 mL of pre-warmed washing buffer solution (215 mM NaCl, 20 mM Tris HCl [pH 7.0], 0.1% SDS, and 5 mM EDTA) (DelosReyes et al. (1997)). Fixed, hybridized cells were mounted with Type FF immersion oil (Cargille, Cedar Grove, N.J.) and a cover slip. Cells were stained with 4′, 6-diamidino-2-phenylindole (DAPI) at a concentration of 1 μg/mL for 1 minute and rinsed with DI water.
(§4) Image Capture. Whole cell fluorescence was visualized with an upright epiflourescence microscope (Leitz DiaPlan, Heerbrugg, Switzerland), and digital images were captured using a Spot-FLEX charge coupled device (CCD) camera (Diagnostic Instruments, Inc., Sterling Heights, Mich.). Images were collected using a 100× oil objective and constant exposure time (1.1 sec for experiment I; 3.0 sec for experiment 2) and gain of 2.

[6] = system: A. baumannii^T; test: as above; format: cell-based, Acinetobacter baumannii; conditions: for initial mean whole cell fluorescence: prior to chloramphenicol, 8-bit intensity
Procedure: as §1, §2, §3, §4

[7] = system: A. baumannii^T; test: Growth of antibiotic treated culture by optical density (OD); format: cell-based, Acinetobacter baumannii; conditions: susceptible strain; levofloxacin 2 μg/mL
Procedure: Culturing. Four Acinetobacter strains (Table 1) were maintained on nutrient agar (Difco) at 35° C. Prior to each experiment, a single colony was used to inoculate an overnight culture of nutrient broth (Difco). Experimental cultures were prepared by transferring 1 mL of culture to a flask containing 100 mL of nutrient broth. The relationship between optical density (OD at 600 nm) and cell concentration (CFU/mL) was determined by collecting samples between an OD of 0.1 and 0.6. The samples were serially diluted (10^−4-10^−7) in sterile nutrient broth and 100 μL of diluted sample was spread on nutrient agar plates in replicates of 5. After 24 hours of incubation at 35° C., colonies were counted on plates which contained between 20 and 200 colonies.
To test the effects of the antibiotic doxycycline, doxycycline (Fisher Scientific) stock solution (1 mg/mL) was added to 100-mL of fresh, sterile nutrient broth for a final concentration of 8 μg/mL. A sample from an actively growing culture (10 mL) was added to the doxycycline/nutrient broth for a final volume of 110 mL. The aforementioned transfers were performed for both the resistant strain A. baumannii CBD1311 (OD=0.378) and a susceptible strain A. baumannii^T (OD=0.324). […]

[8] = antibiotic exposure 30 min, ampicillin 2 μg/mL, ciprofloxacin 0.25 μg/mL, doxycycline 500 μg/mL
[9] = 90 minutes of antibiotic exposure, doxycycline 8 μg/mL or levofloxacin 2 μg/mL

Row | Structure (SMILES) | ratio of dF/dt compared to the control ([2]; antibiotic exposure 30 min) | dF/dt [2, 8] | dF/dt ([2]; antibiotic exposure 90 min) | ratio of dF/dt compared to the control ([2]; antibiotic exposure 90 min) | dF/dt ([2]; antibiotic exposure 150 min) | dF/dt ([2]; antibiotic exposure 210 min) | ratio of dF/dt compared to the control ([2]; antibiotic exposure 210 min) | effect on ribosome synthesis [2] | MIC [3] | MIC [4] | dF/dtcm (rate of ribosome synthesis) [5] | dF/dtcm (rate of ribosome synthesis) [6, 9] | also measured
1 | CC1(C)S[C@@H]2[C@H](NC(=O)[C@H](N)c3ccccc3)C(=O)N2[C@H]1C(=O)O [Ampicillin] | 93% | 4.7 | 5.06 | 152% | 2.86 | 0 | 0% | impacted by the ampicillin after exposure for 150 and 210 min; also recorded: greater dF/dt than the control cells |  |  |  |  | impact on optical density [1]: mild impact; cell morphology ([2]; long exposures (T=150 min)): elongated cells
2 | O=C(O)c1cn(C2CC2)c2cc(N3CCNCC3)c(F)cc2c1=O [Ciprofloxacin] |  | 4.46 | 2.42 |  | 0.254 | 0.308 |  | appear to not be synthesizing ribosomes after 150 min |  |  |  |  | 
3 | C[C@H]1c2cccc(O)c2C(=O)C2=C(O)[C@]3(O)C(=O)C(C(N)=O)=C(O)[C@@H](N(C)C)[C@@H]3[C@@H](O)[C@@H]21 [doxycycline] | 2% | 0.1238 | 0 | 0% | 0 | 0 | 0% |  | ≤ 0.125 µg/mL | 16 µg/mL (≈ 36 µM) | 4.95 | 1.38 | initial mean whole cell fluorescence ([5]; prior to chloramphenicol, 8-bit intensity): approximately 26; initial mean whole cell fluorescence ([6]; 30 minutes of antibiotic exposure): 59.6
4 | C[C@H]1COc2c(N3CCN(C)CC3)c(F)cc3c(=O)c(C(=O)O)cn1c23 [levofloxacin] |  |  |  |  |  |  |  |  | 0.25 µg/mL (≈ 0.692 µM) | 8 µg/mL (≈ 22.1 µM) | 5.84 | 1.67 | dF/dtcm (rate of ribosome synthesis) ([6]; 30 minutes of antibiotic exposure, doxycycline 8 μg/mL or levofloxacin 2 μg/mL): 2.23; initial mean whole cell fluorescence ([6]; 90 minutes of antibiotic exposure): 71; reduction in dF/dtcm compared to the control ([6]; 90 minutes of levofloxacin exposure): > 50%; dF/dtcm (rate of ribosome synthesis) ([6]; after 60 minutes of exposure to levofloxacin (so in the source), 2 μg/mL): 1.67; delay before cessation of growth [7]: 60 min
